Laboratory results reported in patent US20080027042A1, “Novel Aminopyridine Derivatives Having Aurora a Selective Inhibitory Action” (priority 2004, published 2008).

Legend:
[1] = system: Human cervical cancer cells (HeLa S3); experiment: Cell growth inhibitory effect, WST-8 method; format: cell-based; settings: 72 h, HeLa S3, three days incubation
Source text: Method for Judging the Pharmaceutical Effect Using cells
Fetal calf serum (FCS) was purchased from Moregate Biotech, and DMEM medium was purchased from Invitrogen Corp. WST-8 was purchased from Kishida Chemical Co., Ltd.
(§1) Human cervical cancer cells (HeLa S3) were obtained from the American Type Culture Collection (ATCC).
(§2) c) Method of Judging the Effect
Cells were suspended in a DMEM medium containing 10% FCS, and the cell suspension was dispensed to a 96-well plastic plate at a rate of 750 cells/l 00 microliters per well. The plate was incubated overnight in 5% CO2-95% air at 37° C. A drug was subjected to graded dilution in dimethylsulfoxide and further diluted with a DMEM medium containing 10% FCS. Then, the dilution was dispensed to the plate on which cells had been disseminated, at a rate of 100 microliters per well. The plate was incubated for further three days in 5% CO2-95% air at 37° C. Cell growth after incubation was measured by the WST-8 method (H. Tominaga, et al., Anal. Commun., 36, 47-50 (1999)). Here, the WST-8 method refers to a method in which 20 microliters of a WST-8 reagent solution is added to each well, incubation is conducted at 37° C. for 45 minutes, the plate is stirred, and the amount of formazan produced is measured by a calorimetric method to determine the inhibitory rate of the drug. The concentration for 50% growth inhibition (EC50, IM) of the compound was determined.

Aurora A = biological target: T1, Aurora A (Homo sapiens, UniProt O14965); experiment: Aurora A inhibitory action (33P-ATP kinase assay, Kemptide substrate); format: biochemical; settings: 20 μM ATP, 30° C., 20 minutes
T1 construct: histidine tag (N); made in house; host or cells: Escherichia coli BL21-CodonPlus(DE3)-RIL
T1 sequence (O14965 1-403): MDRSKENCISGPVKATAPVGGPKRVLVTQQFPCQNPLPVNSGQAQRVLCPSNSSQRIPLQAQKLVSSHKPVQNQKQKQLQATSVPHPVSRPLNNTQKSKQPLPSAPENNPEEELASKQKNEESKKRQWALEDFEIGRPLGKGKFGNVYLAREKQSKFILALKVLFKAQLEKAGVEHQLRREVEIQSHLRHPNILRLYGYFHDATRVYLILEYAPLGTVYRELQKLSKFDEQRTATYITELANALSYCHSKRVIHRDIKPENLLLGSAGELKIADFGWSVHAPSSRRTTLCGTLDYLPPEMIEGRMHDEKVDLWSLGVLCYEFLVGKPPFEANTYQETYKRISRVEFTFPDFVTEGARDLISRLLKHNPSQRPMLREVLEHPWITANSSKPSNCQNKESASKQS
Summary of the method: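 His-tagged Aurora A expressed in E. coli, Ni-purified; reaction in 50 mM Tris pH 7.4, 15 mM Mg acetate, 0.2 mM EDTA with 100 μM Kemptide, 20 μM ATP plus [γ-33P]ATP, 20 min at 30 °C. Phosphopeptide captured on P81 filters and counted by scintillation; DMSO control.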

Aurora B = biological target: T2, Aurora B (Homo sapiens, UniProt Q96GD4); experiment: Aurora B inhibitory action (33P-ATP kinase assay, Kemptide substrate); format: biochemical; settings: 100 μM ATP, 30° C., 20 minutes
T2 construct: histidine tag (N); made in house; host or cells: Escherichia coli BL21-CodonPlus(DE3)-RIL
Summary of the method: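 His-tagged Aurora B expressed in E. coli, reacted with 100 μM Kemptide, 100 μM ATP plus [γ-33P]ATP in Tris pH 7.4, 15 mM Mg acetate, 0.2 mM EDTA, 30 °C, 20 min. Peptide captured on P81 filters for scintillation counting; compounds added from DMSO dilutions.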

[2] = system: Human cervical cancer cells (HeLa S3); experiment: Effect by combined use of drugs in cells (with paclitaxel), WST-8 method; format: cell-based; settings: three days; for inhibition at 0.3 µM: HeLa S3, compound 0.3 μM alone; for inhibition at 0.03 µM: HeLa S3, compound 0.03 μM alone; for inhibition at 0.1 µM: HeLa S3, compound 0.1 μM alone
Source text: Method for Judging the Effect by Combined Use of Drugs in Cells
Fetal calf serum (FCS) was purchased from Moregate Biotech, DMEM medium from Invitrogen Corp., paclitaxel (tradename: Taxol) from Sigma-Aldrich, Inc., and WST-8 from Kishida Chemical Co., Ltd.
as §1, §2
Cells were suspended in a DMEM medium containing 10% FCS, and the cell suspension was dispensed to two 96-well plastic plates at a rate of 750 cells/100 microliters per well. The plates were incubated overnight in 5% CO2-95% air at 37° C. A drug was subjected to graded dilution in dimethylsulfoxide and flurther diluted with DMSO or with a DMEM medium containing 10% FCS and also containing 2 nM paclitaxel. Then, the dilutions were each dispensed to one of the plates on which cells had been disseminated, at a rate of 100 microliters per well. The final concentration of paclitaxel at this stage was 1 nM. Also, the concentrations in the case of sole administration of the compound according to the invention were 0.03, 0.1, 0.3, 1 and 3 μM. The plates were incubated for further three days in 5% CO2-95% air at 37° C. Cell growth after incubation was measured by the WST-8 method (H. Tominaga, et al., Anal. Commun., 36, 47-50 (1999)). Here, the WST-8 method refers to a method in which 20 microliters of a WST-8 reagent solution is added to each well, incubation is conducted at 37° C. for 45 minutes, the plate is stirred, and the amount of formazan produced is measured by a colorimetric method to determine the inhibitory rate of the drug. The growth inhibitory effects of paclitaxel and of the compound according to the invention were determined, with the value obtained in sole treatment of DMSO being defined as 0%.

[3] = HeLa S3, compound 0.3 μM + paclitaxel 1 nM
[4] = Homo sapiens, HeLa S3, 72 h, read-out: Cell growth inhibitory effect by sole administration of the compound of Example (%)
[5] = HeLa S3, compound 0.03 μM + paclitaxel 1 nM
[6] = HeLa S3, compound 0.1 μM + paclitaxel 1 nM

T2 sequence (Q96GD4 whole entry): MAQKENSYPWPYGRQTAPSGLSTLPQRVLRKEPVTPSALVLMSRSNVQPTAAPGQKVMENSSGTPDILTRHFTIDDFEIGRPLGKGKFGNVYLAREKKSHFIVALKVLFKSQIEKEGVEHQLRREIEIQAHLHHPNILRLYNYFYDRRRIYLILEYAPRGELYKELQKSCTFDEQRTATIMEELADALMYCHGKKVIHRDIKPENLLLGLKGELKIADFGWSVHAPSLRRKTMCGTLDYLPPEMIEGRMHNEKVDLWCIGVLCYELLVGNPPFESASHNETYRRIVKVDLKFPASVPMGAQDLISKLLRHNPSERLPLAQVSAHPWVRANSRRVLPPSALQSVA

Row | IC50 [1] [nM] | IC50 (Aurora A) [nM] | melting point [°C] | IC50 (Aurora B) [nM] | SMILES | Cell growth inhibitory effect by combined administration of paclitaxel and the compound of Example (%) [2, 3] [%] | inhibition at 0.3 µM [2, 4] [%] | Cell growth inhibitory effect by combined administration of paclitaxel and the compound of Example (%) [2, 5] [%] | inhibition at 0.03 µM [2, 4] [%] | Cell growth inhibitory effect by combined administration of paclitaxel and the compound of Example (%) [2, 6] [%] | inhibition at 0.1 µM [2, 4] [%] | Cell growth inhibitory effect by combined administration of paclitaxel and the compound of Example (%) ([2]; HeLa S3, compound 1.0 μM + paclitaxel 1 nM) | inhibition at 1 µM ([2]; Homo sapiens, HeLa S3, 72 h, HeLa S3, compound 1.0 μM alone, read-out: Cell growth inhibitory effect by sole administration of the compound of Example (%)) [%]
1 | 2400 | 0.89 | 160 to 163 | 1100 | O=C(c1cccc(C(F)(F)F)c1F)N1CCN(Cc2cncc(Nc3cc[nH]n3)n2)CC1 [Example 44, 6-((4-(2-fluoro-3-(trifluoromethyl)benzoyl)piperazin-1-yl)methyl)-N-1H-pyrazol-3-ylpyrazin-2-amine] | 86.5 | 7.1 | – | – | – | – | – | –
2 | 360 | 0.38 | – | 200 | O=C(c1cccc(Cl)c1F)N1CCN(Cc2cc(CO)cc(Nc3nccs3)n2)CC1 [Example 89, (2-((4-(3-chloro-2-fluorobenzoyl)piperazin-1-yl)methyl)-6-(thiazol-2-ylamino)pyridin-4-yl)methanol] | – | – | – | – | 85.8 | 19.1 | – | –
3 | 220 | 0.59 | – | 250 | COCc1cc(CN2CCN(C(=O)c3cccc(Cl)c3F)CC2)nc(Nc2nccs2)c1 [Example 95, 6-((4-(3-chloro-2-fluorobenzoyl)piperazin-1-yl)methyl)-4-(methoxymethyl)-N-thiazol-2-ylpyridin-2-amine] | – | – | 73.5 | 0 | – | – | – | –
4 | 990 | 1.1 | – | 1400 | N#Cc1cc(CN2CCN(C(=O)c3cccc(Cl)c3F)CC2)nc(Nc2nccs2)c1 [Example 104, 2-((4-(3-chloro-2-fluorobenzoyl)piperazin-1-yl)methyl)-6-(thiazol-2-ylamino)isonicotinonitrile] | 81.6 | 6.3 | – | – | – | – | – | –
5 | 400 | 0.88 | – | 400 | Cn1nnnc1-c1cc(CN2CCN(C(=O)c3cccc(Cl)c3F)CC2)nc(Nc2nccs2)c1 [Example 106, 6-((4-(3-chloro-2-fluorobenzoyl)piperazin-1-yl)methyl)-4-(1-methyl-1H-tetrazol-5-yl)-N-thiazol-2-ylpyridin-2-amine] | – | – | – | – | 76.7 | 6.1 | – | –
6 | 210 | 0.32 | – | 190 | Cn1nnc(-c2cc(CN3CCN(C(=O)c4cccc(Cl)c4F)CC3)nc(Nc3nccs3)c2)n1 [Example 107, 6-((4-(3-chloro-2-fluorobenzoyl)piperazin-1-yl)methyl)-4-(2-methyl-2H-tetrazol-5-yl)-N-thiazol-2-ylpyridin-2-amine] | – | – | 74.1 | 11.5 | – | – | – | –
7 | 1200 | 0.59 | – | 800 | O=C(c1cccc(Cl)c1F)N1CCN(Cc2cc(-c3ncn[nH]3)cc(Nc3nccs3)n2)CC1 [Example 108, 6-((4-(3-chloro-2-fluorobenzoyl)piperazin-1-yl)methyl)-N-thiazol-2-yl-4-(1H-1,2,4-triazol-5-yl)pyridin-2-amine] | – | – | – | – | – | – | 86.4 | 17.2

Row | SMILES | IC50 [1] [nM] | IC50 (Aurora A) [nM] | melting point [°C] | IC50 (Aurora B) [nM] | Cell growth inhibitory effect by combined administration of paclitaxel and the compound of Example (%) [2, 3] [%] | inhibition at 0.3 µM [2, 4] [%] | Cell growth inhibitory effect by combined administration of paclitaxel and the compound of Example (%) [2, 5] [%] | inhibition at 0.03 µM [2, 4] [%] | Cell growth inhibitory effect by combined administration of paclitaxel and the compound of Example (%) [2, 6] [%] | inhibition at 0.1 µM [2, 4] [%] | Cell growth inhibitory effect by combined administration of paclitaxel and the compound of Example (%) ([2]; HeLa S3, compound 1.0 μM + paclitaxel 1 nM) | inhibition at 1 µM ([2]; Homo sapiens, HeLa S3, 72 h, HeLa S3, compound 1.0 μM alone, read-out: Cell growth inhibitory effect by sole administration of the compound of Example (%)) [%]
8 | CN(C)C(=O)c1cc(CN2CCN(C(=O)c3cccc(Cl)c3F)CC2)nc(Nc2nccs2)c1.O=C(O)C(F)(F)F [Example 86, 2-((4-(3-chloro-2-fluorobenzoyl)piperazin-1-yl)methyl)-N,N-dimethyl-6-(thiazol-2-ylamino)isonicotinamide trifluoroacetate] | 510 | 0.66 | – | 560 | – | – | 71.6 | 6.2 | – | – | – | –
